In patent publication EP0891773A1, “Use of gamma-linolenic acid for preventing oxydative stress” (priority 1997, dated 1999):
Read-outs that look alike come from different tables or passages of the source.

System: fibroblastes dermiques humains normaux
Experiment: Protective effect on normal human dermal fibroblasts under oxidative stress (TBH 10^-4 M, 1 h); cell viability by neutral red uptake
Type: cell-based
Conditions: for activity at 0.1 µM: 0,1 µM
Protocol: Mesure de l'effet protecteur de l'acide γ-linolénique sur des fibroblastes dermiques humains normaux soumis à un stress oxydatif:
Des cultures de fibroblastes dermiques humains normaux sont réalisées selon la méthode décrite par Gilchrest B. A. dans J. Gerontol., vol.35, pp. 537-541, 1980.
A J(0) on ensemence des plaques multipuits de type COSTAR à raison de 50000 cellules par puits. Les cellules sont cultivées dans du milieu MEM Eagle (GIBCO) contenant 10% de sérum de veau foetal, 2 mM de L-glutamine, 1% acides aminés non essentiels, 1 mM pyruvate de sodium et 1% d'un mélange antibiotiques/antimicotiques vendu par la société GIBCO.
A J(+1) le milieu de culture est remplacé par du milieu MEM sans sérum de veau foetal contenant ou ne contenant pas (témoin) la substance à tester.
Des solutions d'acides gras essentiels sont préparés dans des solutions à 0.1 % d'albumine humaine. Les solutions mères sont à 2. 10^-3 M , la dilution minimale est à 10^-4 M dans le milieu de culture sans sérum de veau foetal. L'addition de vitamine E à 30 µM final permet d'éviter les problèmes d'autooxydation des acides gras. Les cellules sont traitées 3 jours sans changement de milieu.
Un stress oxydatif est induit à J(+4). Pour cela, le milieu de culture est retiré et les plaques sont rincées avec du tampon phosphate salin (PBS). 50% des puits sont traités par une solution de terbutyl hydroperoxyde (TBH) à 10^-4 M, les 2 autres puits étant laissés en PBS et l'incubation se poursuit pendant une heure dans un incubateur à 37°C en atmosphère contenant 5% de CO2.
Au bout d'une heure, les plaques sont rincées 3 fois au PBS pour enlever toute trace de TBH. Une solution mère de rouge neutre à […] est diluée au 1/40 dans un milieu minimum (MEM de marque GIBCO). La solution diluée est placée 1h au bain marie à 37°C pour une bonne dissolution puis filtrée sur 0.22 µm pour éliminer les cristaux résiduels. La solution ainsi préparée est ajoutée sur les cellules et les plaques sont mises à l'incubateur à 37°C en atmosphère contenant 5% de CO2 pour 3 h. Après incubation les plaques sont vidées de leur milieu et rincées au PBS. Une solution à 0.4% de formaldéhyde et 1% de chlorure de calcium dans de l'eau est ajoutée dans chaque puits pour une durée de 1 minute. On remplace alors cette solution par une solution à 49% d'éthanol pur dans l'eau et 1% d'acide acétique glacial. On laisse la coloration se développer 30 mn à température ambiante et on lit les plaques au spectrophotomètre à 540 nm.
Pour chaque condition (traité ou témoin), le calcul est effectué de la manière suivante :
Proportion de cellules stressées : rapport de la moyenne des densités optiques mesurées pour les puits traités sur la moyenne des densités optiques mesurées pour les puits non traités.
Pourcentage de résistance : Proportion de cellules stressées dans l'essai sur proportion de cellules stressées dans le témoin x 100
Par ce calcul, le témoin est considéré à 100 % de protection contre le stress oxydatif et les produits présentent un effet protecteur supérieur ou inférieur au témoin.

[1] = Fibroblast, table a, comparison of essential fatty acids, 10 µM, 3 days pretreatment, then TBH 10^-4 M 1 h, control = 100, read-out: Pourcentage de résistance
[2] = Fibroblast, table c, comparison with known antioxidants, 10 µM, control = 100, read-out: Pourcentage de résistance
[3] = Fibroblast, table c, comparison with known antioxidants, 100 µM, control = 100, read-out: Pourcentage de résistance
[4] = Fibroblast, table c, comparison with known antioxidants, 1 mM, control = 100, read-out: Pourcentage de résistance

Molecule `CCCCC/C=C\C/C=C\CCCCCCCC(=O)O` [Acide Linoléique] has an activity at 10 µM [1] of 100%.
In the case of `CCCCC/C=C\C/C=C\C/C=C\CCCCC(=O)O` [Acide γ-Linolénique, acide γ-linolénique], the activity at 0.01 µM (Fibroblast, table b, dose effect, 0,01 µM, control = 100, read-out: Pourcentage de résistance) is reported as 123%, the activity at 0.1 µM (Fibroblast, table b, dose effect, control = 100, read-out: Pourcentage de résistance) is reported as 130% and the activity at 1 µM (Fibroblast, table b, dose effect, 1 µM, control = 100, read-out: Pourcentage de résistance) is reported as 119%. The activity at 10 µM (Fibroblast, table b, dose effect, 10 µM, control = 100, read-out: Pourcentage de résistance) was 121%, the activity at 100 µM (Fibroblast, table b, dose effect, 100 µM, control = 100, read-out: Pourcentage de résistance) was 95% and the activity at 0.1 µM (Fibroblast, table c, comparison with known antioxidants, control = 100, read-out: Pourcentage de résistance) was 112%. The activity at 10 µM [1] was 124%, the effet maximum (concentration of maximum effect in the dose-effect test (table b)) was 0,1 µM and the “résistance au stress oxydatif” value (conclusion in words on table a (10 µM), only this fatty acid among those tested) was “augmente la résistance au stress oxydatif”. For the same molecule, the “effet protecteur du stress oxydatif” value (conclusion in words on table c, versus reference antioxidants) was “comparable à celui de molécules reconnues comme anti-oxydants de référence”.
`N[C@@H](CCC(=O)N[C@@H](CS)C(=O)NCC(=O)O)C(=O)O` [Glutathion] was tested, and the activity at 10 µM [2] was 95%, the activity at 100 µM [3] was 93% and the activity at 1000 µM [4] was 100%.
`CC(=O)N[C@@H](CS)C(=O)O` [N-Acétyl cystéine] gave an activity at 10 µM [2] of 94%, an activity at 100 µM [3] of 103% and an activity at 1000 µM [4] of 107%.
In the case of `S=C(S)N1CCCC1` [Pyrrolidine dithiocarbamate], the activity at 20 µM (Fibroblast, table c, comparison with known antioxidants, 20 µM, control = 100, read-out: Pourcentage de résistance) is reported as 97% and the activity at 100 µM [3] is reported as 112%.
For Vitamine E, the “Pourcentage de résistance” value (table c, comparison with known antioxidants, 10 µM, control = 100) was 112%, the “Pourcentage de résistance” value (table c, comparison with known antioxidants, 100 µM, control = 100) was 107% and the “Pourcentage de résistance” value (table c, comparison with known antioxidants, 1 mM, control = 100) was 111%.
